Laboratory results reported in ChEMBL document CHEMBL3627602, “Synthesis of a novel series of 2,3,4-trisubstituted oxazolidines designed by isosteric replacement or rigidification of the structure and cytotoxic evaluation” (Medchemcomm, 2014).
The source made the active and inactive calls. The calls are words filed in the database; no cut-off is given here.

Columns and labels:
[1] = test system: MDA-MB-231; assay: Induction of DNA fragmentation in human MDA-MB-231 cells at 50 uM after 24 hrs using propidium iodide staining by flow cytometric analysis; assay type: functional, cell-based
[2] = test system: HL-60; assay: Antiproliferative activity against human HL60 cells incubated for 48 hrs by MTT assay; assay type: functional, cell-based; settings: HL-60, 48 h
[3] = test system: HL-60; assay: Induction of DNA fragmentation in human HL60 cells at 50 uM after 24 hrs using propidium iodide staining by flow cytometric analysis; assay type: functional, cell-based
[4] = test system: Jurkat; assay: Antiproliferative activity against human Jurkat cells incubated for 48 hrs by MTT assay; assay type: functional, cell-based
[5] = test system: PBMC; assay: Antiproliferative activity against human PBMC incubated for 48 hrs by MTT assay; assay type: cell-based
[6] = test system: Vero; assay: Cytotoxicity against African green monkey Vero cells incubated for 48 hrs by MTT assay; assay type: cell-based; settings: Chlorocebus sabaeus
[7] = test system: MDA-MB-231; assay: Antiproliferative activity against human MDA-MB-231 cells incubated for 48 hrs by MTT assay; assay type: functional, cell-based; settings: MDA-MB-231, 48 h
[8] = test system: LNCaP; assay: Antiproliferative activity against human LNCAP cells incubated for 48 hrs by MTT assay; assay type: functional, cell-based
[9] = test system: LNCaP; assay: Selectivity index, ratio of IC50 for human PBMC to IC50 for human LNCAP cells
[10] = test system: LNCaP; assay: Selectivity index, ratio of IC50 for African green monkey Vero cells to IC50 for human LNCAP cells; assay type: functional

SMILES	IC50 [2] [µM]	IC50 [4] [µM]	IC50 [7] [µM]	IC50 [8] [µM]	Activity [1]	Activity [3]	IC50 [5] [µM]	IC50 [6] [µM]	Ratio IC50 [9]	Ratio IC50 [10]
CC(C)(C)OC(=O)N1[C@@H](CSc2ccc([N+](=O)[O-])cc2)COC1(C)C	> 50	> 50	> 80	> 80	–	–	–	–	–	–
COC(=O)c1ccc(CC[C@H]2COC(C)(C)N2C(=O)OC(C)(C)C)cc1	20	> 50	> 80	37	–	–	–	–	–	–
CC(C)(C)OC(=O)N1[C@@H](C(=O)Nc2ccc([N+](=O)[O-])cc2)COC1(C)C	> 50	> 50	> 80	> 80	–	–	–	–	–	–

Now from value to compound, other results behind:

IC50 [2] [µM]	IC50 [4] [µM]	IC50 [7] [µM]	IC50 [8] [µM]	SMILES	Activity [1]	Activity [3]	IC50 [5] [µM]	IC50 [6] [µM]	Ratio IC50 [9]	Ratio IC50 [10]
18	42	32	27	CC(C)(C)OC(=O)N1[C@@H](/C=C\c2ccc([N+](=O)[O-])cc2)COC1(C)C	inactive	Active	> 100	> 100	–	–
23	46	32	11	CC(C)(C)OC(=O)N1[C@@H](/C=C/c2ccc([N+](=O)[O-])cc2)COC1(C)C	inactive	Active	> 100	> 100	>9	>9
